# Test results as given in patent US11571401B2, “Compounds, compositions, kits, and methods for activating immune cells and/or an immune system response” (East Carolina University, priority 2017, dated 2023).
# Assays:
# [1] = tested on: B16F10 melanoma cells; test: Cell surface calreticulin (CRT) expression by flow cytometry in B16F10 melanoma cells; type: cell-based, mouse
# Experimental: DAMPs are proteins that are expressed on the surface of cancer cells (e.g., calreticulin (CRT)) or are released from cancer cells (e.g., ATP and HMGB1) after exposure to DAMP inducing agents. DAMPs signal immune cell mediated cancer death.
# B16F10 melanoma cells were treated with 5 uM 15dPMJ2 (PMJ), 5 uM oxaliplatin (OX), drug vehicle (VEH, DMSO 0.1%) or cells remained untreated (UT) for 2 hours. After 2 hours, cell surface calreticulin (CRT) expression was measured by flow cytometric analysis.
# Brefeldin A is a molecule that inhibits the movement of proteins from the ER to the golgi apparatus (inhibits ER-golgi trafficking). Proteins must move from the ER to golgi in order translocate to the cell surface.
# B 16f10 cells were treated with vehicle (V), brefeldin A (BFA), 15dPMJ2 (PMJ) or brefeldin+15dPMJ2.
# [2] = tested on: B16F10 melanoma cells; test: Extracellular ATP release from B16F10 melanoma cells; type: cell-based, mouse
# Experimental: B16F10 melanoma cells were treated with 5 uM 15dPMJ2 (PMJ), 5uM oxaliplatin (OX), drug vehicle (VEH, DMSO 0.1%) or cells remained untreated (UT) for 4 hours. After 4 hours of drug treatment, the cell culture media from B16F10 cells was obtained to measured ATP levels.
# B16F10 cells were treated with 15dPMJ2 (PMJ), oxaliplatin (OX), or drug vehicle (VEH) in the presence or absence of the ER stress inhibitor, GSK2656157 (“inhibitor” (I)).
# [3] = tested on: immature dendritic cells isolated from the bone marrow of C57BL/6 mice; test: Dendritic cell maturation: drug-treated B16F10 cells co-cultured with immature bone marrow dendritic cells; type: cell-based, mouse; conditions: FIG. 9
# Experimental: B16F10 melanoma cells remained untreated (UT) or were treated with lipopolysaccharide (LPS; positive control dendritic cell activator), vehicle (VEH; 0.1% DMSO), 500 uM oxaliplatin (OXA; positive control DAMP inducer), or 5 uM 15dPMJ2 (PMJ). The drug-treated cancer cells were then co-cultured with immature dendritic cells that were isolated from the bone marrow of C57BL/6 mice (mouse strain from which the B16F10 cell line was derived). Cell surface markers for dendritic cell maturation were then detected.
# [4] = tested on: A431 cells (NMSC); test: Cell surface CRT expression by flow cytometry in A431 cells; type: cell-based, human
# Experimental: (§1) A431 cells (NMSC) and HT-29 (colon cancer) cells were treated with 15dPMJ2, oxaliplatin (OX), drug vehicle (VEH) or cells were untreated (UT) for 2 hours. Cell surface CRT expression was then detected by flow cytometric analysis.
# (§2) Tumorigenic, A431, and non-tumorigenic, HaCaT keratinocyte cell lines were treated with 15dPMJ2 or drug vehicle (0.1% DMSO) and the cell surface expression of calreticulin (CRT; “eat me” signal) and CD47 (“don't eat me” signal) was detected by conducting flow cytometric analysis.
# [5] = tested on: HT-29 (colon cancer) cells; test: Cell surface CRT expression by flow cytometry in HT-29 cells; type: cell-based; conditions: 5 μM (FIG. 6), 2 hours
# Experimental: as §1
# [6] = tested on: non-tumorigenic, HaCaT keratinocyte cell line; test: Cell surface CRT expression by flow cytometry in HaCaT keratinocytes; type: cell-based, human; conditions: HaCaT non-tumor keratinocytes vs drug vehicle (0.1% DMSO); FIG. 7
# Experimental: as §2
# [7] = tested on: A431 cells; test: Cell surface CD47 expression by flow cytometry in A431 cells; type: cell-based, human; conditions: A431 tumor cells vs drug vehicle (0.1% DMSO); FIG. 8
# Experimental: as §2
# [8] = tested on: non-tumorigenic, HaCaT keratinocyte cell line; test: Cell surface CD47 expression by flow cytometry in HaCaT keratinocytes; type: cell-based, human; conditions: HaCaT non-tumor keratinocytes vs drug vehicle (0.1% DMSO); FIG. 8
# Experimental: as §2
# [9] = tested on: B16F10 melanoma tumors; test: Tumor-infiltrating mature dendritic cells in B16F10 melanoma tumors in mice; type: in vivo; conditions: C57BL/6 mice, peri-tumor route, 5 days, 0.5 and 0.25 mg/kg (FIG. 10), compared to cisplatin-, oxaliplatin-treated and untreated animals
# Experimental: To determine if 15dPMJ2 can increase the amount of tumor-attacking immune cells in melanoma tumors, a pilot xenograft study was conducted. B16F10 melanoma cells were injected into the subcutaneous flank region of C57BL/6 mice and tumor growth was allowed until tumors were palpable. Animals were then treated by the peri-tumor route with 15dPMJ2, oxaliplatin (positive control DAMP inducer), cisplatin (negative control DAMP inducer), vehicle (PBS containing 0.1% DMSO) or animals were untreated. After 5 days of drug treatment, animals were euthanized and tumors excised for analysis of infiltrating immune cells (TILs). Tumors were dissociated to create a single cell suspension. The expression of MHC II and CD86 (dendritic cell maturation markers) was analyzed by conducting flow cytometric analysis.
# [10] = tested on: tumor cells; conditions: background statement; see U.S. Pat. No. 9,328,060; cited from earlier work
compound,measurement,setting,value
"C[C@H]1CCC/C=C/[C@@H]2C[C@H](O)C[C@H]2[C@H](O)/C=C/C(=O)O1 [Brefeldin A, reference compound]",15dPMJ2-mediated cell surface CRT expression in presence of brefeldin A,"[1]; brefeldin + 15dPMJ2, FIG. 4",inhibited 15dPMJ2-mediated cell surface CRT expression
"Cc1cccc(CC(=O)N2CCc3c2ccc(-c2cn(C)c4ncnc(N)c24)c3F)n1 [GSK2656157, reference compound]",extracellular ATP levels after 15dPMJ2 in presence of the ER stress inhibitor,"[2]; inhibitor + 15dPMJ2 vs 15dPMJ2 alone, FIG. 3",significantly decreased extracellular ATP levels
"O=C1[O][Pt]2([NH][C@@H]3CCCC[C@H]3[NH]2)[O]C1=O [Oxaliplatin, oxaliplatin, reference compound]",dendritic cell maturation (MHC II and CD86),"[3]; B16F10 cells treated with 500 uM oxaliplatin (100 times the concentration of 15dPMJ2), then co-cultured with BMDCs, compared with 15dPMJ2",caused similar levels of dendritic cell maturation
"CCCCC/C=C/C=C1/C(=O)C=CC1C/C=C/CCCC(=O)NCCO (centres unmarked) [Formula 15dPMJ2, 15-deoxy Δ^12,14-prostagladin J2-ethanolamide]",cell surface calreticulin (CRT) expression,"[1]; 5 uM, 2 hours, flow cytometry, FIG. 1",significantly greater than oxaliplatin
same,ATP release (extracellular ATP in cell culture media),"[2]; 5 uM, 4 hours, FIG. 2",significantly increased ATP release compared to vehicle and oxaliplatin treated cells
same,cell surface CRT expression (DAMP expression),"[4]; A431 cells, 5 μM (FIG. 5), 2 hours",potent inducer of DAMP expression
same,cell surface expression of calreticulin (CRT; eat me signal),"[4]; A431 tumor cells vs drug vehicle (0.1% DMSO), FIG. 7",increased
same,cell surface CRT expression (DAMP expression),[5],potent inducer of DAMP expression
same,cell surface expression of calreticulin (CRT; eat me signal),[6],slight increase
same,cell surface expression of CD47 (don't eat me signal),[7],decreased
same,cell surface expression of CD47 (don't eat me signal),[8],increase
same,expression of MHC II and CD86 (dendritic cell maturation markers),"[3]; B16F10 cells treated with 5 uM 15dPMJ2, then co-cultured with BMDCs",significantly increased the expression of MHC II and CD86
same,"quantity of mature dendritic cells (MHC II, CD86) that infiltrated the tumor",[9],increased the quantity of mature dendritic cells that infiltrated the tumor
same,cell death in tumor cells compared to non-tumor cells,[10],preferentially causes cell death in tumor cells compared to non-tumor cells
